Data reported in patent US11051515B2, “3-acyl-benzamides and their use as herbicides” (Bayer Aktiengesellschaft, priority 2017, dated 2021).

Key:
LOLRI [1] = test: Pre-emergence action against LOLRI; format: in vivo, Lolium rigidum; conditions: dosage 320 g/ha, scored visually after 3 weeks vs untreated controls
Outline: (§1)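 Seeds sown in sandy loam in wood-fiber pots and covered with soil. Greenhouse growth; visual damage scored after 3 weeks versus untreated controls (100% = dead, 0% = like control).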

AMARE [2] = test: Post-emergence action against AMARE; format: in vivo, Amaranthus retroflexus; conditions: post-emergence, dosage 80 g/ha, visual assessment about 3 weeks after treatment vs untreated controls
Outline: (§2)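 Weeds grown in sandy loam in greenhouse, treated at one-leaf stage (2–3 weeks after sowing) with WP or EC formulations sprayed as aqueous suspension/emulsion at 600 to […] water with 0.2% wetting agent. Visual rating after about 3 weeks versus untreated controls, as % herbicidal action (100% = plants dead, 0% = like control).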

SETVI [3] = test: Post-emergence action against SETVI; format: in vivo, Setaria viridis; conditions: post-emergence, dosage 80 g/ha, visual assessment about 3 weeks after treatment vs untreated controls
Outline: as §2

SETVI [4] = test: Pre-emergence action against SETVI; format: in vivo, Setaria viridis; conditions: pre-emergence, dosage 320 g/ha, scored visually after 3 weeks vs untreated controls
Outline: as §1

STEME [5] = test: Post-emergence action against STEME; format: in vivo, Stellaria media; conditions: post-emergence, dosage 80 g/ha
Outline: as §2

STEME [6] = test: Pre-emergence action against STEME; format: in vivo, Stellaria media; conditions: Dosage 320 g/ha, pre-emergence
Outline: as §1

VERPE [7] = test: Pre-emergence action against VERPE; format: in vivo, Veronica persica; conditions: Dosage 320 g/ha, pre-emergence
Outline: as §1

ALOMY [8] = test: Post-emergence action against ALOMY; format: in vivo, Alopecurus myosuroides; conditions: Dosage 80 g/ha, post-emergence
Outline: as §2

LOLRI [9] = test: Post-emergence action against LOLRI; format: in vivo, Lolium rigidum; conditions: dosage 80 g/ha, visual assessment about 3 weeks after treatment vs untreated controls
Description: (§3) Seeds of monocotyledonous and dicotyledonous weed and crop plants are laid out in sandy loam soil in wood-fiber pots, covered with soil and cultivated in a greenhouse under good growth conditions. 2 to 3 weeks after sowing, the test plants are treated at the one-leaf stage. The compounds of the invention, formulated in the form of wettable powders (WP) or as emulsion concentrates (EC), are then sprayed onto the green parts of the plants in the form of an aqueous suspension or emulsion at a water application rate equating to […], with addition of 0.2% wetting agent. After the test plants have been left to stand in the greenhouse under optimal growth conditions for about 3 weeks, the action of the preparations is assessed visually in comparison to untreated controls (herbicidal action in percent (%): 100% activity=the plants have died, 0% activity=like control plants). […] At the same time, inventive compounds leave Gramineae crops such as barley, wheat, rye, millet/Sorghum, corn or rice virtually undamaged when applied post-emergence, even at high active ingredient dosages. In addition, some substances are also harmless to dicotyledonous crops such as soya, cotton, oilseed rape, sugar beet or potatoes. Some of the compounds according to the invention have high selectivity and are therefore suitable for controlling unwanted vegetation in agricultural crops by the post-emergence method. The data of Tables B18 to B34 below illustrate, in an exemplary manner, the […] herbicidal action of the compounds according to the invention, the herbicidal activity being stated in percent.

PHBPU [10] = test: Pre-emergence action against PHBPU; format: in vivo, Pharbitis purpurea; conditions: Dosage 320 g/ha, pre-emergence
Outline: as §1

VIOTR [11] = test: Post-emergence action against VIOTR; format: in vivo, Viola tricolor; conditions: post-emergence, dosage 80 g/ha
Outline: as §2

AVEFA [12] = test: Pre-emergence action against AVEFA; format: in vivo, Avena fatua; conditions: dosage 320 g/ha, scored visually after 3 weeks vs untreated controls
Outline: as §1

HORMU [13] = test: Post-emergence action against HORMU; format: in vivo, Hordeum murinum; conditions: dosage 80 g/ha
Description: as §3

POLCO [14] = test: Post-emergence action against POLCO; format: in vivo, Polygonum convolvulus; conditions: post-emergence, dosage 80 g/ha
Outline: as §2

MATIN [15] = test: Pre-emergence action against MATIN; format: in vivo, Matricaria inodora; conditions: Dosage 320 g/ha, pre-emergence
Outline: as §1

ABUTH [16] = test: Pre-emergence action against ABUTH; format: in vivo, Abutilon theophrasti; conditions: pre-emergence, dosage 320 g/ha, scored visually after 3 weeks vs untreated controls
Outline: as §1

ECHCG [17] = test: Pre-emergence action against ECHCG; format: in vivo, Echinochloa crus-galli; conditions: pre-emergence, dosage 320 g/ha, scored visually after 3 weeks vs untreated controls
Outline: as §1

POLCO [18] = test: Pre-emergence action against POLCO; format: in vivo, Polygonum convolvulus; conditions: Dosage 320 g/ha, pre-emergence
Outline: as §1

AVEFA [19] = test: Post-emergence action against AVEFA; format: in vivo, Avena fatua; conditions: post-emergence, dosage 80 g/ha, visual assessment about 3 weeks after treatment vs untreated controls
Outline: as §2

CYPES [20] = test: Post-emergence action against CYPES; format: in vivo, Cyperus esculentus; conditions: post-emergence, dosage 80 g/ha, visual assessment about 3 weeks after treatment vs untreated controls
Outline: as §2

HORMU [21] = test: Pre-emergence action against HORMU; format: in vivo, Hordeum murinum; conditions: Dosage 320 g/ha
Outline: as §1

PHBPU [22] = test: Post-emergence action against PHBPU; format: in vivo, Pharbitis purpurea; conditions: post-emergence, dosage 80 g/ha
Outline: as §2

ECHCG [23] = test: Post-emergence action against ECHCG; format: in vivo, Echinochloa crus-galli; conditions: post-emergence, dosage 80 g/ha, visual assessment about 3 weeks after treatment vs untreated controls
Outline: as §2

AMARE [24] = test: Pre-emergence action against AMARE; format: in vivo, Amaranthus retroflexus; conditions: pre-emergence, dosage 320 g/ha, scored visually after 3 weeks vs untreated controls
Outline: as §1

MATIN [25] = test: Post-emergence action against MATIN; format: in vivo, Matricaria inodora; conditions: post-emergence, dosage 80 g/ha, visual assessment about 3 weeks after treatment vs untreated controls
Outline: as §2

ABUTH [26] = test: Post-emergence action against ABUTH; format: in vivo, Abutilon theophrasti; conditions: post-emergence, dosage 80 g/ha, visual assessment about 3 weeks after treatment vs untreated controls
Outline: as §2

VERPE [27] = test: Post-emergence action against VERPE; format: in vivo, Veronica persica; conditions: dosage 80 g/ha
Outline: as §2

VIOTR [28] = test: Pre-emergence action against VIOTR; format: in vivo, Viola tricolor; conditions: Dosage 320 g/ha, pre-emergence
Outline: as §1

ALOMY [29] = test: Pre-emergence action against ALOMY; format: in vivo, Alopecurus myosuroides; conditions: dosage 320 g/ha; pre-emergence; scored visually after 3 weeks vs untreated controls; 100% = plants have died, 0% = like control plants
Outline: as §1

LOLMU [30] = test: Post-emergence action against LOLMU; format: in vivo, Lolium multiflorum; conditions: dosage 80 g/ha, visual assessment about 3 weeks after treatment vs untreated controls
Outline: as §2

CYPES [31] = test: Pre-emergence action against CYPES; format: in vivo, Cyperus esculentus; conditions: pre-emergence, dosage 320 g/ha, scored visually after 3 weeks vs untreated controls
Outline: as §1

LOLMU [32] = test: Pre-emergence action against LOLMU; format: in vivo, Lolium multiflorum; conditions: dosage 320 g/ha, scored visually after 3 weeks vs untreated controls
Outline: as §1

Compound	Post-emergence action against AMARE (herbicidal action in percent) (AMARE [2]) [%]	Post-emergence action against SETVI (herbicidal action in percent) (SETVI [3]) [%]	SETVI (Table B8, pre-emergence herbicidal activity) (SETVI [4]) [%]	Post-emergence action against STEME (STEME [5])	Pre-emergence action against STEME (STEME [6]) [%]	Pre-emergence action against VERPE (VERPE [7]) [%]	Pre-emergence action against PHBPU (PHBPU [10]) [%]	Post-emergence action against VIOTR (VIOTR [11])	Pre-emergence action against AVEFA (herbicidal activity) (AVEFA [12]) [%]	Post-emergence action against POLCO (POLCO [14])	Pre-emergence action against MATIN (MATIN [15]) [%]	Pre-emergence action against ABUTH (herbicidal activity) (ABUTH [16]) [%]	Pre-emergence action against ECHCG (herbicidal activity) (ECHCG [17]) [%]	Pre-emergence action against POLCO (POLCO [18]) [%]	Post-emergence action against CYPES (herbicidal action in percent) (CYPES [20]) [%]	Post-emergence action against PHBPU (PHBPU [22])	Post-emergence action against ECHCG (herbicidal action in percent) (ECHCG [23]) [%]	Pre-emergence action against AMARE (herbicidal activity) (AMARE [24]) [%]	Post-emergence action against MATIN (herbicidal action in percent) (MATIN [25]) [%]	Post-emergence action against ABUTH (herbicidal action in percent) (ABUTH [26]) [%]	further results
CCn1nnnc1NC(=O)c1ccc(C(F)F)c(C(=O)C2CC2)c1SC [2-67]	100	100	100	100	100	100	90	100	100	100	100	100	100	90	80	100	100	100	100	100	Pre-emergence action against LOLRI (herbicidal activity) (LOLRI [1]): 100%; Post-emergence action against ALOMY (ALOMY [8]): 100%; Post-emergence action against LOLRI (herbicidal action in percent) (LOLRI [9]): 80%; Post-emergence action against HORMU (HORMU [13]): 80; Post-emergence action against AVEFA (herbicidal action in percent) (AVEFA [19]): 100%; Pre-emergence action against HORMU (HORMU [21]): 100%; Post-emergence action against VERPE (VERPE [27]): 90; Pre-emergence action against VIOTR (VIOTR [28]): 100%; Pre-emergence action against ALOMY (herbicidal activity in percent) (ALOMY [29]): 100%
CCn1nnnc1NC(=O)c1ccc(Cl)c(C(=O)C2CC2)c1Cl [2-116]	90	90	100	90	90	100	90	100	90	90	100	100	100	90	80	100	90	100	90	80	Post-emergence action against LOLMU (herbicidal action in percent) (LOLMU [30]): 90%; Post-emergence action against ALOMY (ALOMY [8]): 80%; Pre-emergence action against CYPES (herbicidal activity) (CYPES [31]): 90%; Post-emergence action against AVEFA (herbicidal action in percent) (AVEFA [19]): 90%; Pre-emergence action against LOLMU (herbicidal activity) (LOLMU [32]): 100%; Post-emergence action against VERPE (VERPE [27]): 90; Pre-emergence action against VIOTR (VIOTR [28]): 100%; Pre-emergence action against ALOMY (herbicidal activity in percent) (ALOMY [29]): 100%
CCCn1nnnc1NC(=O)c1ccc(C(F)F)c(C(=O)C2CC2)c1SC [3-67]	100	100	100	100	90	100	100	100	100	80	100	100	100	90	80	100	100	100	100	100	Pre-emergence action against LOLRI (herbicidal activity) (LOLRI [1]): 100%; Pre-emergence action against CYPES (herbicidal activity) (CYPES [31]): 100%; Post-emergence action against LOLRI (herbicidal action in percent) (LOLRI [9]): 80%; Post-emergence action against HORMU (HORMU [13]): 80; Pre-emergence action against HORMU (HORMU [21]): 100%; Post-emergence action against VERPE (VERPE [27]): 80; Pre-emergence action against VIOTR (VIOTR [28]): 100%; Pre-emergence action against ALOMY (herbicidal activity in percent) (ALOMY [29]): 100%
